Legend:
Test in all cases: KINOMEscan
Type in all cases: binding
Conditions in all cases: read-out: % control activity remaining
ASK2 = target: T1, ASK2 (Homo sapiens, UniProt O95382)
T1 construct: purchased Eurofins DiscoverX KINOMEscan
T1 sequence (O95382 1-1288): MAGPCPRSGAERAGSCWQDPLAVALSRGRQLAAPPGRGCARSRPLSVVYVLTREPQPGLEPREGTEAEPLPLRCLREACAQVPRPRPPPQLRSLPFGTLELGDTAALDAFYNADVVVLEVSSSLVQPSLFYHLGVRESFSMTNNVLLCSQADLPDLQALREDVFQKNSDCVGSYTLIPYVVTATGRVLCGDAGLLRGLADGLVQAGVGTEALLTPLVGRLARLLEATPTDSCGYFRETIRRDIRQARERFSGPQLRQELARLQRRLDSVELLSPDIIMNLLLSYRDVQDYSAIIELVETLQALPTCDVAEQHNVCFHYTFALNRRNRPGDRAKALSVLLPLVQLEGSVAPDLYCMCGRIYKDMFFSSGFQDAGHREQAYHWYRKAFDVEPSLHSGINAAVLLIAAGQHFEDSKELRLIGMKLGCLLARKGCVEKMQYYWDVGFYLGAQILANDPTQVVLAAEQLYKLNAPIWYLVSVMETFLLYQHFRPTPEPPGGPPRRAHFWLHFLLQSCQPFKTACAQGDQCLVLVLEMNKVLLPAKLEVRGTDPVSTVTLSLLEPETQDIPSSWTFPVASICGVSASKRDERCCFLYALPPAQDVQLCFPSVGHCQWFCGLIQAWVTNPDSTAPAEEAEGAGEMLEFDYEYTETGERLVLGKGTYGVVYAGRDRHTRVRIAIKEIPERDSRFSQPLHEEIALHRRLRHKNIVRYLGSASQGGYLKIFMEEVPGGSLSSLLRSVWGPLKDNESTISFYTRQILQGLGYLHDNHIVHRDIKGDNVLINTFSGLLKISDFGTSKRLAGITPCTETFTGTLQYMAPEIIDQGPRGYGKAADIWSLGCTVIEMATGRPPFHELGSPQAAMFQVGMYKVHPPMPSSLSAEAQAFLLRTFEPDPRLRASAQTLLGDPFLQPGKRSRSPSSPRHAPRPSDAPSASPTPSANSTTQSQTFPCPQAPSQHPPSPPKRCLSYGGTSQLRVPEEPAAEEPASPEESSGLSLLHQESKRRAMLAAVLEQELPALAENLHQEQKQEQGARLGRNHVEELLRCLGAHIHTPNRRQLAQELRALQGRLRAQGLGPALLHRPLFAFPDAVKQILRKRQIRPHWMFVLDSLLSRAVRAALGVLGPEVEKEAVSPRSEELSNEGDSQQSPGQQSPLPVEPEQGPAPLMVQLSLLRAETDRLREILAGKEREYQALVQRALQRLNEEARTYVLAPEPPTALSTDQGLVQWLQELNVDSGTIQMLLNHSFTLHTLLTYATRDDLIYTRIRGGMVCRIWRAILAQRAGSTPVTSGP

CDK9 = target: T2, CDK9 (Homo sapiens, UniProt P50750)
T2 construct: purchased Eurofins DiscoverX KINOMEscan

CDKL3 = target: T3, CDKL3 (Homo sapiens, UniProt Q8IVW4)
T3 construct: purchased Eurofins DiscoverX KINOMEscan

DCAMKL3 = target: T4, DCAMKL3 (Homo sapiens, UniProt Q9C098)
T4 construct: purchased Eurofins DiscoverX KINOMEscan
T4 sequence (Q9C098 1-648): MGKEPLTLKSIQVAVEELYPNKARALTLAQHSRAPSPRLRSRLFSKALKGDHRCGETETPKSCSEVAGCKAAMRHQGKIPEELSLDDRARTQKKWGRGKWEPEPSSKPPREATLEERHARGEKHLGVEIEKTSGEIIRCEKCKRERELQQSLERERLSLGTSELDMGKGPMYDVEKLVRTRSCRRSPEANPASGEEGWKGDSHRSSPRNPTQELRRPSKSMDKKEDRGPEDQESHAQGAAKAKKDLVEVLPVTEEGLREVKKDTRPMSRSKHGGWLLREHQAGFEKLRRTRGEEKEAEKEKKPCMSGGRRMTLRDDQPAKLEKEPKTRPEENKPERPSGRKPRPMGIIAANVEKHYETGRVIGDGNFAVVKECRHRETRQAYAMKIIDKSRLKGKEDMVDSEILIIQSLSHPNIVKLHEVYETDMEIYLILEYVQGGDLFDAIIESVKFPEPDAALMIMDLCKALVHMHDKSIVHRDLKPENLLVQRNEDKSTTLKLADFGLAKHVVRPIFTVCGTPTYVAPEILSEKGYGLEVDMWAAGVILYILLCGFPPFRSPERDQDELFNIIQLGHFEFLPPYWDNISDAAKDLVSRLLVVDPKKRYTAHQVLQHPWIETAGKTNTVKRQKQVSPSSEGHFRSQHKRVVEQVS

SNRK = target: T5, SNRK (Homo sapiens, UniProt Q9NRH2)
T5 construct: purchased Eurofins DiscoverX KINOMEscan
T5 sequence (Q9NRH2 1-765): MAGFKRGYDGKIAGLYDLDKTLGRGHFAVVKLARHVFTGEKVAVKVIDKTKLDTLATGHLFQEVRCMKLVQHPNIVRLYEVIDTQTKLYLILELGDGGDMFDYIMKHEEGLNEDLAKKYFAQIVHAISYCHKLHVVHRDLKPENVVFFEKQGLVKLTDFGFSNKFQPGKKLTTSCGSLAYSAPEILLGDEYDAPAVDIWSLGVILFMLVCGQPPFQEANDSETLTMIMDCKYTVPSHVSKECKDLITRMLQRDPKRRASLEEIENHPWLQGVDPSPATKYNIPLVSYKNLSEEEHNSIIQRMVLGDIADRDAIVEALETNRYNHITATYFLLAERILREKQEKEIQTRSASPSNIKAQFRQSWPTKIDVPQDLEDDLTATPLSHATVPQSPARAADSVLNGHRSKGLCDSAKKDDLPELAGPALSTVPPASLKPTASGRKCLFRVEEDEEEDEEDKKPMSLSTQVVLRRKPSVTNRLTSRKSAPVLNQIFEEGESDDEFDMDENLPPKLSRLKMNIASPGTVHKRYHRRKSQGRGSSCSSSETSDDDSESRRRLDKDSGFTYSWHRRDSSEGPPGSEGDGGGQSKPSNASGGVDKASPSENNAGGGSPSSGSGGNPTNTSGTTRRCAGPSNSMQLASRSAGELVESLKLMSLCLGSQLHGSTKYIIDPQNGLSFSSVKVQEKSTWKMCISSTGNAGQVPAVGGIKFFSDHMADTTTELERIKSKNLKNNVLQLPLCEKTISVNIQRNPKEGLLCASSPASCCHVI

T2 sequence (P50750 whole entry): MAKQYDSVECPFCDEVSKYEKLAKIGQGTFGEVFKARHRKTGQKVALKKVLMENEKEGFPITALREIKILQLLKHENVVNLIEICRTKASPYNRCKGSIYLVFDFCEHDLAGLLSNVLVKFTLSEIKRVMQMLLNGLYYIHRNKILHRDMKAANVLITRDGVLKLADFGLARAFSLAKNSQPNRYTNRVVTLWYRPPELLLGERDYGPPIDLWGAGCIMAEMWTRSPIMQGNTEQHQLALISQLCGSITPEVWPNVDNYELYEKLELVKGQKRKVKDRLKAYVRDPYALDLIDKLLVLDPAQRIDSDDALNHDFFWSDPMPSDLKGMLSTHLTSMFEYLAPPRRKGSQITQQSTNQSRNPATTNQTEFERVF
T3 sequence (Q8IVW4 whole entry): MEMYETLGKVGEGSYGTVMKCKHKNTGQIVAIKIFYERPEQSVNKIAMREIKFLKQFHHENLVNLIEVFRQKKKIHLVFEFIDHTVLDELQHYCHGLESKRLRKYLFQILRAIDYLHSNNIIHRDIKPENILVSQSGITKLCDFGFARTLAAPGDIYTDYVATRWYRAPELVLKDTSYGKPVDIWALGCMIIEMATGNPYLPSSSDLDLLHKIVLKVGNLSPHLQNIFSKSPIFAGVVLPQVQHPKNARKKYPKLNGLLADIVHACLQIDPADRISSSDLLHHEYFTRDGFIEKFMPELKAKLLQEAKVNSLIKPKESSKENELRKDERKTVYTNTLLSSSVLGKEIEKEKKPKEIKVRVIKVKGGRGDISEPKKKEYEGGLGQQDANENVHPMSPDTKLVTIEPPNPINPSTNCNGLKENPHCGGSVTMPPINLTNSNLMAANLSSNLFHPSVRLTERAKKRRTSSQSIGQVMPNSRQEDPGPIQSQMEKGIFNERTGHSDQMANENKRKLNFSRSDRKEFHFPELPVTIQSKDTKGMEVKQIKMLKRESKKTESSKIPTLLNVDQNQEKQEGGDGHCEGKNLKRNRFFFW

| Structure (SMILES) | remaining binding at 1 µM (ASK2) [%] | remaining binding at 1 µM (CDK9) [%] | remaining binding at 1 µM (CDKL3) [%] | remaining binding at 1 µM (DCAMKL3) [%] | remaining binding at 1 µM (SNRK) [%] |
| --- | --- | --- | --- | --- | --- |
| Clc1cc(NCC2CC2)c2ncc(-c3ccc4[nH]ncc4c3)n2n1 [compound 2, 6-Chloro-N-(cyclopropylmethyl)-3-(1H-indazol-5-yl)imidazo[1,2-b]pyridazin-8-amine] | 83 | 98 | 100 | 100 | 99 |
| O=C(CN1CCOCC1)N[C@H]1CC[C@H](Nc2cc(Cl)nn3c(-c4ccc5[nH]ncc5c4)cnc23)CC1 [compound 26] | 96 | 43 | 88 | 100 | 100 |
| CN1CCC(CNc2cc(Cl)nn3c(-c4cc5nc(Nc6ccccc6)[nH]c5cc4F)cnc23)CC1 [compound 31, 6-Chloro-3-(6-fluoro-2-(phenylamino)-1H-benzo[d]imidazol-5-yl)-N-((1-methylpiperidin-4-yl)methyl)imidazo[1,2-b]pyridazin-8-amine] | 100 | 95 | 90 | 100 | 79 |

Source: paper PMC6437697 (Journal of Medicinal Chemistry, 2019)
